This passage reports IC50 and EC50 results from paper PMC3855752, “Function and Distribution of 5-HT2 Receptors in the Honeybee (Apis mellifera)” (PLoS ONE, 2013).

What all share (type): cell-based
Assay [1] concerns the target T1, Am5-HT2α (Apis mellifera, UniProt A0A8U1C256).
T1 construct: gene 5-HT2alpha; cDNA from drone brain
Nature of the assay: Fluo-4 intracellular Ca2+ assay in stable HEK […] cells, inhibition of serotonin response. Particulars: read-out: Am5-HT2αIC50.

Assay [2] has as its target T1, Am5-HT2α. Briefly: Fluo-4 intracellular Ca2+ assay in stable HEK […] cells.
Assay [3] concerns the target T2, Am5-HT2β (Apis mellifera, UniProt A0ACM8QMF9).
T2 construct: gene 5-HT2beta; cDNA from drone brain
The assay is described as above.

In assay [4] the target is T2, Am5-HT2β. Nature of the assay: Fluo-4 intracellular Ca2+ assay in stable HEK […] cells, inhibition of serotonin response. Particulars: read-out: Am5-HT2βIC50.

Read-outs that look alike come from different tables or passages of the source.

T1 sequence (A0A8U1C256 entry or part of it): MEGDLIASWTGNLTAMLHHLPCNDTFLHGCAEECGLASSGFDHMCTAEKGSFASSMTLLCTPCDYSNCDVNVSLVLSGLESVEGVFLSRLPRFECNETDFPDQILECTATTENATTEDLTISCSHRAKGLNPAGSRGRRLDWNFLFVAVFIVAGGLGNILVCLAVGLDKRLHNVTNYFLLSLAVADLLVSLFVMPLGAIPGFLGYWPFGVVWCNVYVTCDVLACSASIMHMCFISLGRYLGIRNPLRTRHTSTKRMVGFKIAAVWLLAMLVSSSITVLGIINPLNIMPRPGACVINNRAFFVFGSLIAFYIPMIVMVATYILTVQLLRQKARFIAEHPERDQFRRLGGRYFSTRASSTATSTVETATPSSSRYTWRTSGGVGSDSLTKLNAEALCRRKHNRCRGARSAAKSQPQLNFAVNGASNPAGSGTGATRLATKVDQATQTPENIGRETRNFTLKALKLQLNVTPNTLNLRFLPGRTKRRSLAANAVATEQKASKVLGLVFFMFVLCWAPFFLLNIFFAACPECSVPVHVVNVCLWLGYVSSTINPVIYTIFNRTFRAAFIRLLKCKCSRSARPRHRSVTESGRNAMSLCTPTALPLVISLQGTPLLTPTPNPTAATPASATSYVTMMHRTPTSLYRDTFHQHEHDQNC
T2 sequence (A0ACM8QMF9 entry or part of it): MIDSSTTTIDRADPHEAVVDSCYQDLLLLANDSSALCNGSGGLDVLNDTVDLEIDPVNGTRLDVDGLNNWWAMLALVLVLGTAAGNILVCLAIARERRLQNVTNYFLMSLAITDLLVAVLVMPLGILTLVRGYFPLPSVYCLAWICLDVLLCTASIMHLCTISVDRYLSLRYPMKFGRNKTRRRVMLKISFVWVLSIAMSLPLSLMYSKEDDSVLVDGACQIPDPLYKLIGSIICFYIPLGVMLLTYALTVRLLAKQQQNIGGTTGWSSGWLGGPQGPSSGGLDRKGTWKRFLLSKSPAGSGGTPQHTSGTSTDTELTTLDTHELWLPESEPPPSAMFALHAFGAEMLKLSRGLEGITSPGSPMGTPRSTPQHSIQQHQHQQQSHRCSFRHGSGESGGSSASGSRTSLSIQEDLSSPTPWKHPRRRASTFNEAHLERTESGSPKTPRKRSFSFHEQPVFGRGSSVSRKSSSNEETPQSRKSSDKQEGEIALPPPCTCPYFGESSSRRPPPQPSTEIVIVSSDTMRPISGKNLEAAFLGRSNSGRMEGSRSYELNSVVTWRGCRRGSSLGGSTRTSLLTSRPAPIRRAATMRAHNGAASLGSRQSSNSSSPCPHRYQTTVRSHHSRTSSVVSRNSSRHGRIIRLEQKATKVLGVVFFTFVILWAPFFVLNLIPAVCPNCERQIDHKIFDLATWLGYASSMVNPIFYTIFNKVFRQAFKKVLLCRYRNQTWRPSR

`CSc1ccc2c(c1)C(N1CCN(C)CC1)Cc1ccccc1S2` (stereo not shown) [methiothepin]: on Am5-HT2α [1], the IC50 amounted to 600 nM. A word on the EC50: it is the concentration giving half of the maximal effect. On to `NCCc1c[nH]c2ccc(O)cc12` [serotonin], for which the EC50 amounted to 25.7 nM at Am5-HT2α [2] (read-out: EC50) and 32.5 nM on Am5-HT2β [3] (read-out: EC50). In the case of `O=C(c1ccc(F)cc1)C1CCN(CCn2c(=O)[nH]c3ccccc3c2=O)CC1` [ketanserin], on Am5-HT2β [4], the IC50 is 1500 nM. In the case of `Cn1ccc2cc(NC(=O)Nc3cccnc3)ccc21` [SB-200646], the IC50 at Am5-HT2α [1] stood at 100 nM. Regarding `CCCN(CCC)C1CCc2cccc(O)c2C1` (stereo not shown) [8-OH-DPAT, 8-hydroxy-2-(di-n-propylamino)tetralin], the EC50 at Am5-HT2α [2] (read-out: EC50) came to 55900 nM; at Am5-HT2β [3] (read-out: EC50), 562 nM.

On to `COc1ccc2[nH]cc(CCN)c2c1` [5-methoxytryptamine], for which the 50% effective concentration (EC50) at Am5-HT2α [2] turned out to be 70 nM; on Am5-HT2β [3] it was 60.4 nM. `CC[C@@H](CO)NC(=O)[C@@H]1C=C2c3cccc4c3c(cn4C)C[C@H]2N(C)C1` [methysergide]: the IC50 on Am5-HT2α [1] was 2200 nM.
